Read-outs that look alike come from different tables or passages of the source. Some results are limits rather than exact numbers.

The record followed here is article PMC4237513 (European Journal of Medicinal Chemistry, 2014).

One data set has as its system dengue virus (DENV). Kind of data set: microbe, parasite or virus in culture. Type of data set: cell-based. The settings on record: for EC50: read-out: Dengue EC50.
A further data set deals with yellow fever virus (YFV). Kind of data set: microbe, parasite or virus in culture. The conditions noted are these: read-out: Yellow fever EC50. Type of data set: cell-based.
The nature of another data set: in vitro. The conditions noted are these: chlorocebus sabaeus.
The mark [1] stands for this setting: Yellow fever virus, Vero B, 168 h.

One may read the EC50 as the midpoint of the concentration-response curve. As for `Cc1ccc(NC(=O)c2nc[nH]c2C(=O)Nc2ccc(F)cc2)c(-c2cc(C)n[nH]2)c1` [15a, N^5-(4-fluorophenyl)-N^4-(4-methyl-2-(3-methyl-1H-pyrazol-5-yl)phenyl)-1H-imidazole-4,5-dicarboxamide], the half-maximal effective concentration (EC50) in the data set with dengue virus (DENV) (Dengue virus, Vero B, 168 h) is 2.5 µM; in the data set with yellow fever virus (YFV) (setting [1]) it was 3.37 µM; in the data set with yellow fever virus (YFV), 3.47 µM. Also, the CC50 in “in vitro” (Dengue CC50) and in the data set “in vitro” (Yellow fever CC50) was above 120 µM throughout.

`Cc1cc(-c2ccccc2NC(=O)c2nc[nH]c2C(=O)Nc2ccc(F)cc2)[nH]n1` [15b, N^5-(4-fluorophenyl)-N^4-(2-(3-methyl-1H-pyrazol-5-yl)phenyl)-1H-imidazole-4,5-dicarboxamide]: the 50% effective concentration (EC50) in the data set with dengue virus (DENV) (Dengue virus, Vero B, 168 h) is 6.03 µM; in the data set on yellow fever virus (YFV) (setting [1]), 1.85 µM. The same compound returned a CC50 at 168 h in the data set “in vitro” (Dengue CC50) of 21.7 µM. This compound also came in with a CC50 in the data set “in vitro” (Yellow fever CC50) above 121 µM.

As to `O=C(NCc1ccccc1-c1ccncc1)c1nc[nH]c1C(=O)Nc1ccc(F)cc1` [15c, N^5-(4-fluorophenyl)-N^4-(2-(pyridin-4-yl)benzyl)-1H-imidazole-4,5-dicarboxami-de], the concentration giving a half-maximal response (EC50) turned out to be 1.92 µM in the data set with dengue virus (DENV) (Dengue virus, Vero B, 168 h); 1.93 µM with dengue virus (DENV); 3.9 µM in the data set with yellow fever virus (YFV) (setting [1]). Moreover, the CC50 at 168 h in the data set “in vitro” (Dengue CC50) is 50.1 µM. Also, the CC50 in “in vitro” (Yellow fever CC50) was above 120 µM.

Take `O=C(NCc1ccccc1-c1ccsc1)c1nc[nH]c1C(=O)Nc1ccc(F)cc1` [15d, N^5-(4-fluorophenyl)-N^4-(2-(thiophen-3-yl)benzyl)-1H-imidazole-4,5-dicarbox amide]: the EC50 was 8.88 µM with dengue virus (DENV) (Dengue virus, Vero B, 168 h) and 2.61 µM in the data set on yellow fever virus (YFV) (setting [1]). Besides, the results for the CC50 at 168 h in the data set “in vitro” (Dengue CC50) and in “in vitro” (Yellow fever CC50) were 17.3 µM and 34.5 µM, respectively.

Consider `O=C(NCc1ccc(-c2cccnc2)cc1)c1nc[nH]c1C(=O)Nc1ccc(F)cc1` [15e, N^5-(4-fluorophenyl)-N^4-(4-(pyridin-3-yl)benzyl)-1H-imidazole-4,5-dicarboxamide], for which the EC50 in the data set with dengue virus (DENV) (Dengue virus, Vero B, 168 h) amounted to 42.1 µM; with yellow fever virus (YFV) (setting [1]), 11.8 µM. For the same compound, the CC50 is above 120 µM in the data set “in vitro” (Dengue CC50) and above 118 µM in “in vitro” (Yellow fever CC50).

As to `O=C(NCc1ccc(-c2ccsc2)cc1)c1nc[nH]c1C(=O)Nc1ccc(F)cc1` [15f, N^5-(4-fluorophenyl)-N^4-(4-(thiophen-3-yl)benzyl)-1H-imidazole-4,5-dicarboxamide], the concentration for a half-maximal effect (EC50) in the data set on dengue virus (DENV) (Dengue virus, Vero B, 168 h) turned out to be 33.7 µM; in the data set with yellow fever virus (YFV) (setting [1]), 28.8 µM. Moreover, the CC50 at 168 h in “in vitro” (Dengue CC50) is 20.2 µM. In “in vitro” (Yellow fever CC50), the CC50 is above 119 µM.

As for `O=C(NCc1ccc(-c2ccncc2)cc1)c1nc[nH]c1C(=O)Nc1ccc(F)cc1` [15g, N^5-(4-fluorophenyl)-N^4-(4-(pyridin-4-yl)benzyl)-1H-imidazole-4,5-dicarboxamide], the EC50 with dengue virus (DENV) (Dengue virus, Vero B, 168 h) was above 120 µM; with yellow fever virus (YFV) (setting [1]), above 120 µM. For the same compound, the CC50 in “in vitro” (Dengue CC50) and in the data set “in vitro” (Yellow fever CC50) was above 120 µM each time.

Regarding `Cc1ccc(NC(=O)c2nc[nH]c2C(=O)Nc2ccc(F)cc2)c(-c2ccsc2)c1` [15h, N^5-(4-fluorophenyl)-N^4-(4-methyl-2-(thiophen-3-yl)phenyl)-1H-imidazole-4,5-dicarboxamide], the EC50 in the data set with dengue virus (DENV) (Dengue virus, Vero B, 168 h) is 48.8 µM; in the data set on yellow fever virus (YFV) (setting [1]) it was above 119 µM. Also, the CC50 in “in vitro” (Dengue CC50) is above 117 µM; in “in vitro” (Yellow fever CC50), above 119 µM.

Regarding `Cc1ccc(NC(=O)c2nc[nH]c2C(=O)Nc2ccc(F)cc2)c(-c2ccco2)c1` [15i, N^5-(4-fluorophenyl)-N^4-(2-(furan-2-yl)-4-methylphenyl)-1H-imidazole-4,5-dicarboxamide], in the data set on dengue virus (DENV) (Dengue virus, Vero B, 168 h), the half-maximal effective concentration (EC50) is above 124 µM. In “in vitro” (Dengue CC50), this compound returned a CC50 above 124 µM.

For the compound `Cc1ccc(NC(=O)c2nc[nH]c2C(=O)Nc2ccccc2)c(-c2ccsc2)c1` [15j, N^4-(4-methyl-2-(thiophen-3-yl)phenyl)-N^5-phenyl-1H-imidazole-4,5-dicarboxamide], the EC50 in the data set on dengue virus (DENV) (Dengue virus, Vero B, 168 h) is above 124 µM; with yellow fever virus (YFV) (setting [1]), 9.2 µM. For the same compound, the CC50 is above 124 µM in the data set “in vitro” (Dengue CC50) and above 120 µM in the data set “in vitro” (Yellow fever CC50).

Regarding `Cc1ccc(NC(=O)c2[nH]cnc2C(=O)Nc2ccc(C)cc2-c2ccsc2)cc1` [15k, N^4-(4-methyl-2-(thiophen-3-yl)phenyl)-N^5-(p-tolyl)-1H-imidazole-4,5-dicarboxamide], the EC50 is 2.02 µM in the data set with dengue virus (DENV) (Dengue virus, Vero B, 168 h) and above 120 µM in the data set on yellow fever virus (YFV) (setting [1]). The CC50 in “in vitro” (Dengue CC50) is above 50 µM; in the data set “in vitro” (Yellow fever CC50), above 120 µM.

In the case of `Cc1ccc(NC(=O)c2[nH]cnc2C(=O)Nc2ccc(C)cc2-c2ccco2)cc1` [15l, N^4-(2-(furan-2-yl)-4-methylphenyl)-N^5-(p-tolyl)-1H-imidazole-4,5-dicarboxamide], the concentration for a half-maximal effect (EC50) with dengue virus (DENV) (Dengue virus, Vero B, 168 h) was found to be 3.47 µM. Besides, the CC50 in “in vitro” (Dengue CC50) is above 125 µM.

Regarding `Cc1ccc(NC(=O)c2nc[nH]c2C(=O)NCc2ccccc2)c(-c2ccco2)c1` [15m, N^5-benzyl-N^4-(2-(furan-2-yl)-4-methylphenyl)-1H-imidazole-4,5-dicarboxamide], the “DENV inhibitory activity in words” value in the data set on dengue virus (DENV) was “annihilated the inhibitory properties”. Besides, the EC50 with dengue virus (DENV) (Dengue virus, Vero B, 168 h) was above 125 µM. The compound also registered a CC50 in the data set “in vitro” (Dengue CC50) above 125 µM.

Turning to `Cc1ccc(NC(=O)c2nc[nH]c2C(=O)NCCc2ccc(F)cc2)c(-c2ccco2)c1` [15n, N^5-(4-fluorophenethyl)-N^4-(2-(furan-2-yl)-4-methylphenyl)-1H-imidazole-4,5-dicarboxamide], in the data set on dengue virus (DENV) (Dengue virus, Vero B, 168 h), the concentration for a half-maximal effect (EC50) worked out at 3.77 µM. In “in vitro” (Dengue CC50), this compound came in with a CC50 above 116 µM.

`Cc1cnc(NC(=O)c2[nH]cnc2C(=O)Nc2ccccc2)c(-c2ccc(C)s2)c1` [15o, N^5-(5-methyl-3-(5-methylthiophen-2-yl)pyridin-2-yl)-N^4-phenyl-1H-imidazole-4,5-dicarboxamide]: the “DENV inhibitory activity in words” value with dengue virus (DENV) is “inactive”. The concentration for a half-maximal effect (EC50) with dengue virus (DENV) (Dengue virus, Vero B, 168 h) is above 120 µM; with yellow fever virus (YFV) (setting [1]) it was above 120 µM. Further, in “in vitro” (Dengue CC50), the CC50 at 168 h turned out to be 26.4 µM. In addition, the CC50 in the data set “in vitro” (Yellow fever CC50) was above 119 µM.

As for `O=C(NCc1ccc(-c2ccncc2)cc1)c1nccnc1C(=O)Nc1ccc(F)cc1` [20a, N^2-(4-fluorophenyl)-N^3-(4-(pyridin-4-yl)benzyl) pyrazine-2,3-dicarboxamide], the “fold increase in anti-DENV potency” value in the data set on dengue virus (DENV) is 2 fold. Besides, the concentration for a half-maximal effect (EC50) in the data set with dengue virus (DENV) (Dengue virus, Vero B, 168 h) was found to be 0.93 µM; in the data set with yellow fever virus (YFV) (setting [1]), 7.49 µM. Also, the CC50 in the data set “in vitro” (Dengue CC50) is above 118 µM; in the data set “in vitro” (Yellow fever CC50), above 120 µM.

As to `Cc1ccc(NC(=O)c2nccnc2C(=O)Nc2ccc(F)cc2)c(-c2cccnc2)c1` [20b, N^2-(4-fluorophenyl)-N^3-(4-methyl-2-(pyridin-3-yl)phenyl) pyrazine-2,3-dicarboxamide], the “DENV inhibitory activity in words” value with dengue virus (DENV) is recorded as “strongly inhibiting”. The EC50 stood at 0.93 µM in the data set on dengue virus (DENV) (Dengue virus, Vero B, 168 h) and 13.1 µM with yellow fever virus (YFV) (setting [1]). Besides, the CC50 in “in vitro” (Dengue CC50) and in the data set “in vitro” (Yellow fever CC50) was above 118 µM throughout.

As for `O=C(NCc1ccc(-c2cccnc2)cc1)c1nccnc1C(=O)Nc1ccc(F)cc1` [20c, N^2-(4-fluorophenyl)-N^3-(4-(pyridin-3-yl)benzyl) pyrazine-2,3-dicarboxamide], the concentration for a half-maximal effect (EC50) in the data set on dengue virus (DENV) (Dengue virus, Vero B, 168 h) is 2.99 µM; in the data set with yellow fever virus (YFV) (setting [1]) it was 8.9 µM. The CC50 in the data set “in vitro” (Dengue CC50) is above 115 µM; in the data set “in vitro” (Yellow fever CC50), above 116 µM.

`O=C(Nc1ccc(F)cc1)c1nccnc1C(=O)Nc1ccccc1-c1ccncc1` [20d, N^2-(4-fluorophenyl)-N^3-(2-(pyridin-4-yl)phenyl) pyrazine-2,3-dicarboxamide]: the EC50 in the data set with dengue virus (DENV) (Dengue virus, Vero B, 168 h) amounted to 11.7 µM; in the data set with yellow fever virus (YFV) (setting [1]) it was 8.22 µM. Besides, the CC50 is above 117 µM in “in vitro” (Dengue CC50) and above 123 µM in “in vitro” (Yellow fever CC50).

For `O=C(Nc1ccc(F)cc1)c1nccnc1C(=O)Nc1ccccc1-c1cccnc1` [20e, N^2-(4-fluorophenyl)-N^3-(2-(pyridin-3-yl)phenyl) pyrazine-2,3-dicarboxamide], the EC50 with dengue virus (DENV) (Dengue virus, Vero B, 168 h) is 23.2 µM; with yellow fever virus (YFV) (setting [1]) it was 47.5 µM. The CC50 was above 120 µM in the data set “in vitro” (Dengue CC50) and above 119 µM in the data set “in vitro” (Yellow fever CC50).
